Columns and labels:
[1] = target: T1, Nuclear receptor subfamily 1 group I member 2 (Homo sapiens, UniProt O75469); test: Activation of human PXR in human HepG2 cells co-transfected with CYP3A4-luciferase at 10 uM incubated for 1 day relative to control; conditions: hepg2, 24 h
T1 sequence (O75469 whole entry): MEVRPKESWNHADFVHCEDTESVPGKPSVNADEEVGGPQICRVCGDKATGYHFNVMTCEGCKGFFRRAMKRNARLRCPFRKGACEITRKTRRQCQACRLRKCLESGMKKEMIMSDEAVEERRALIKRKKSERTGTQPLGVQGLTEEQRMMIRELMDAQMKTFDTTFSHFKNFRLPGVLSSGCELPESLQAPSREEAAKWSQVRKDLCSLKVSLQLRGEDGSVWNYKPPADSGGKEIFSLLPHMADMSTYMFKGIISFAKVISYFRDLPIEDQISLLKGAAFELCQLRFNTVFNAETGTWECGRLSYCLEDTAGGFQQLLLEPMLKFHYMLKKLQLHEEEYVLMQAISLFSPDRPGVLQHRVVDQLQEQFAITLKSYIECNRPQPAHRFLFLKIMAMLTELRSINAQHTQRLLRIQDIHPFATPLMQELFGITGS

[2] = Metabolic stability in human liver microsomes assessed as intrinsic clearance at 0.5 uM incubated for 40 mins in presence of NADPH; type: ADME, Microsome; conditions: read-out: CLH
HCT-116 [3] = test: Antiproliferative activity against human HCT-116 cells harboring wildtype MTAP assessed as effect on cell viability incubated for 6 days by Celltiter-Glo luminescent cell viability assay; type: functional, cell-based; conditions: HCT-116, 144 h
PRMT5/MEP50 complex = PRMT5/MEP50 complex (Homo sapiens, UniProt O14744)
Description: Inhibition of PRMT5/MEP50 (unknown origin) preincubated with compound for 24 hrs in presence of SAM and MTA followed by Histone H4 (1-21)-Lys(Biotin) peptide addition and measured after 2 hrs by MTase-Glo reagent based assay

CYP3A4 = CYP3A4 (Homo sapiens, UniProt P08684); test: in vitro; conditions: human liver microsomes, probe midazolam
[4] = Metabolic stability in mouse liver microsomes assessed as intrinsic clearance at 0.5 uM incubated for 40 mins in presence of NADPH; type: ADME, Microsome; conditions: read-out: CLH
HCT-116 [5] = test: Antiproliferative activity against MTAP-deleted human HCT-116 cells assessed as effect on cell viability incubated for 6 days by Celltiter-Glo luminescent cell viability assay; type: functional, cell-based; conditions: HCT-116, 144 h
human MDR1 (P-gp) = test: Efflux ratio of permeability across basolateral to apical side over apical to basolateral side in MDCK cells transfected with human MDR1 in absence of elacridar; conditions: dog
[6] = Half-life in CD-1 mouse at 1 mg/kg, iv; type: ADME, organism-based; conditions: in vivo
[7] = Clearance in CD-1 mouse at 1 mg/kg, iv; conditions: in vivo
[8] = Protein binding in mouse plasma assessed as unbound fraction by ultracentrifugation; conditions: mouse plasma
[9] = Unbound clearance in CD-1 mouse at 1 mg/kg, iv; type: ADME, organism-based; conditions: in vivo
in vivo = conditions: CD-1, mouse, iv, 1 mg/kg
[10] = Oral bioavailability in CD-1 mouse at 5 mg/kg administered as 1% Tween 80, 2% HPMC, 97% water/methane sulfonic acid, pH 2.0 formulation; type: ADME, organism-based; conditions: in vivo

CYP3A4, sequence (P08684 whole entry): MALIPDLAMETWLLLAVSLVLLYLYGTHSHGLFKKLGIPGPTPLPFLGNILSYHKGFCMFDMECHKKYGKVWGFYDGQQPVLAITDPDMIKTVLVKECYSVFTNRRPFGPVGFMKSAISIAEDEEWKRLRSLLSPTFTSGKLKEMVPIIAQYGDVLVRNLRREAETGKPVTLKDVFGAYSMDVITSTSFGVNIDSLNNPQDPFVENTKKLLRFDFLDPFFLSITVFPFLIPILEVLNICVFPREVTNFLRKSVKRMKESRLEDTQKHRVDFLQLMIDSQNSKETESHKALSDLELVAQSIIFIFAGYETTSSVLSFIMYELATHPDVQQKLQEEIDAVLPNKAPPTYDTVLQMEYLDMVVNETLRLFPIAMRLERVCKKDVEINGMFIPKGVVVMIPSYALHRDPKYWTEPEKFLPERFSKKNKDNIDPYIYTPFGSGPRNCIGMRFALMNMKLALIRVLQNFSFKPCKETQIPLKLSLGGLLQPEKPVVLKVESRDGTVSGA
PRMT5/MEP50 complex, sequence (O14744 whole entry): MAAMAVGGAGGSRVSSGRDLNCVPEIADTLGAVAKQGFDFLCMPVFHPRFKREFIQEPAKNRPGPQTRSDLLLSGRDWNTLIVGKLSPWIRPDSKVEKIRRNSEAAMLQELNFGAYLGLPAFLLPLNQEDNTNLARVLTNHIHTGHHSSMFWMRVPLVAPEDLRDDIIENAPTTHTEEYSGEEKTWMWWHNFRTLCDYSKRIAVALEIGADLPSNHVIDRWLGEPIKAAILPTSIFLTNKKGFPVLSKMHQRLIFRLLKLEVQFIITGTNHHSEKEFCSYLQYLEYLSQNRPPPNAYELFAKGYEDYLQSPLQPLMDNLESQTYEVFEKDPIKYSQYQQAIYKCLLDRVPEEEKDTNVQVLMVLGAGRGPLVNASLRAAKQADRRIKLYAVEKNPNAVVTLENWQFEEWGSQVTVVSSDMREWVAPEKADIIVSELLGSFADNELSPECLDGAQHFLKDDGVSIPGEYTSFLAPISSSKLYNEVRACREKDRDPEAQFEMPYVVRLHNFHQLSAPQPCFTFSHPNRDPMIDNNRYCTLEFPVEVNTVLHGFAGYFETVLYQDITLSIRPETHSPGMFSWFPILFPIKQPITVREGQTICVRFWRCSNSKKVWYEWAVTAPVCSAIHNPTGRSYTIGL
PRMT5/MEP50 complex, sequence (Q9BQA1 whole entry, further chain): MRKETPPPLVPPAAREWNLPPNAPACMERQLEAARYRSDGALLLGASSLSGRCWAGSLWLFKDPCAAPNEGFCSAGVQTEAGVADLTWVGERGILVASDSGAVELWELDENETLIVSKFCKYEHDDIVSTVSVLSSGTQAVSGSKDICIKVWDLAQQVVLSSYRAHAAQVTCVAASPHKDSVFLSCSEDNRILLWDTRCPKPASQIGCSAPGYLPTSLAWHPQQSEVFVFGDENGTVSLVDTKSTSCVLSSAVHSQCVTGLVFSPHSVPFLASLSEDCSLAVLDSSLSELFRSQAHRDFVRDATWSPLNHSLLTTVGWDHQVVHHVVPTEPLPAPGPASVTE

Compound | Activity [1] | microsomal CLint at 0.5 µM [2] | IC50 (HCT-116 [3]) | Ki (PRMT5/MEP50 complex) | inhibition at 30 min, 10 µM (CYP3A4) | microsomal CLint at 0.5 µM [4] | IC50 (HCT-116 [5]) | efflux ratio (human MDR1 (P-gp)) | half-life [6] | clearance [7] | fraction unbound [8] | CL free [9] | Vd (in vivo) | bioavailability [10]
Nc1nc2ccc(C(=O)N3CCOC[C@H]3c3ccc(C(F)(F)F)cn3)cc2c2c1COC2 | < 20% | 61 µL/min/mg | > 50000 nM | 182 nM | < 20% | 52 µL/min/mg | 15500 nM |  |  |  |  |  |  | 
C[C@H](c1ncccn1)N(Cc1ccc(C(F)(F)F)cn1)C(=O)c1ccc2nc(N)c(Cl)cc2c1 | 46% | < 14 µL/min/mg | 5110 nM | 0.2 nM | 25% | 105 µL/min/mg | 344 nM | 9 |  |  |  |  |  | 
Cc1cc2cc(C(=O)N(Cc3ccc(C(F)(F)F)cn3)[C@H](C)c3ncccn3)cnc2nc1N | 6% | 14 µL/min/mg | 3490 nM | 0.1 nM | 70% | 14 µL/min/mg | 273 nM | 63 |  |  |  |  |  | 
C[C@H](c1ncccn1)N(Cc1ccc(C(F)(F)F)cn1)C(=O)c1cnc2nc(N)c3c(c2c1)COC3 | 1% | 22 µL/min/mg | 409 nM | < 0.1 nM | < 1% | 17 µL/min/mg | 83 nM |  |  |  |  |  |  | 
CCN(Cc1ccc(C(F)(F)F)cn1)C(=O)c1ccc2nc(N)c3c(c2c1)COC3 | < 20% | 30 µL/min/mg | 3210 nM | < 0.1 nM | < 20% | 45 µL/min/mg | 100 nM | 10 | 2 h | 11.7 mL/min/kg | 0.12 | 96.7 mL/min/kg | 1.5 L/kg | 95%
Nc1nc2ccc(C(=O)N3CCCC3c3ccc(C(F)(F)F)cn3)cc2c2c1COC2 (stereo unspecified) | < 20% | 57 µL/min/mg | > 50000 nM | 184 nM | < 20% | 72 µL/min/mg | > 50000 nM |  |  |  |  |  |  | 
CN(Cc1ccc(C(F)(F)F)cn1)C(=O)c1ccc2nc(N)c3c(c2c1)COC3 | < 20% | 14 µL/min/mg | 8790 nM | 0.1 nM | < 20% | 19 µL/min/mg | 426 nM | 23 | 2.2 h | 8.33 mL/min/kg | 0.21 | 40 mL/min/kg | 0.9 L/kg | 64%
Nc1nc2ccc(C(=O)N3CCOC[C@@H]3c3ccc(C(F)(F)F)cn3)cc2c2c1COC2 | < 20% | 14 µL/min/mg | 9430 nM | < 0.1 nM | < 20% | 16 µL/min/mg | 395 nM | 33 | 2.1 h | 6.67 mL/min/kg | 0.18 | 36.7 mL/min/kg | 1.2 L/kg | 78%
Nc1nc2cnc(C(=O)N3CCC(F)(F)C[C@@H]3c3ccc(C(F)(F)F)cc3)cc2c2c1COC2 | < 20% | 50 µL/min/mg | 16100 nM | 0.4 nM | < 20% | 87 µL/min/mg | 1090 nM | 5 |  |  |  |  |  | 
Nc1nc2ccc(C(=O)N3CCOC[C@@H]3c3ccc(C(F)(F)F)cc3)cc2c2c1COC2 | < 20% | 50 µL/min/mg | 4810 nM | < 0.1 nM | < 20% | 78 µL/min/mg | 233 nM | 13 | 2.7 h | 6.67 mL/min/kg | 0.05 | 130 mL/min/kg | 1.6 L/kg | 61%
C[C@@H]1OCc2c1c(N)nc1cnc(C(=O)N3CCOC[C@@H]3c3ccc(C(F)(F)F)cc3)cc21 | < 20% | 49 µL/min/mg | > 50000 nM | 1.1 nM | < 20% | 64 µL/min/mg | 4600 nM | 7 |  |  |  |  |  | 
C[C@H](c1ncccn1)N(Cc1ccc(C(F)(F)F)cn1)C(=O)c1cc2c3c(c(N)nc2cn1)COC3 | 9% | 67 µL/min/mg | 1860 nM | 0.1 nM | 4% | 154 µL/min/mg | 202 nM | 61 |  |  |  |  |  | 
Nc1nc2ncc(C(=O)N3CCOCC3c3ccc(C(F)(F)F)cc3)cc2c2c1COC2 (stereo unspecified) | < 20% | 17 µL/min/mg | > 10000 nM | 10.4 nM | < 20% | 26 µL/min/mg | 4440 nM | 69 |  |  |  |  |  | 
C[C@H](c1ncccn1)N(Cc1ccc(C(F)(F)F)cn1)C(=O)c1ccc2nc(N)c3c(c2c1)CCC3 | 73% | 274 µL/min/mg | 129 nM | < 0.1 nM | 8% | 563 µL/min/mg | 14 nM | 85 |  |  |  |  |  | 
CC(=O)N1CCC(Nc2cc(C(=O)NC[C@H](O)CN3CCc4ccccc4C3)ncn2)CC1 [PEMRAMETOSTAT] |  |  | 68 nM |  |  |  | 74 nM |  |  |  |  |  |  | 
Nc1nc2ccc(C(=O)N3CCOC[C@@H]3c3ccc(Cl)cc3)cc2c2c1COC2 | < 20% | 42 µL/min/mg | 8270 nM | < 0.1 nM | < 20% | 121 µL/min/mg | 399 nM | 8 |  |  |  |  |  | 
Cc1cc2cc(C(=O)N(Cc3ccc(C(F)(F)F)cn3)CC(C)C)ccc2nc1N | 22% | 32 µL/min/mg | 6090 nM |  | 52% | 148 µL/min/mg | 431 nM |  |  |  |  |  |  | 
Nc1nc2ccc(C(=O)N3CCOCC3c3ccc(C(F)(F)F)cn3)cc2c2c1COC2 (racemic) | < 20% | 37 µL/min/mg | 14300 nM | 0.1 nM | < 20% | 45 µL/min/mg | 809 nM |  |  |  |  |  |  | 
C[C@H](c1ncccn1)N(Cc1ccc(C(F)(F)F)cn1)C(=O)c1ccc2nc(N)c3c(c2c1)COC3 | 13% | 129 µL/min/mg | 78 nM | < 0.1 nM | 4% | 278 µL/min/mg | 14 nM | 63 | 0.9 h | 38.3 mL/min/kg | 0.23 | 167 mL/min/kg | 1.4 L/kg | 8%
Cc1cc2cc(C(=O)N(Cc3ccc(C(F)(F)F)cn3)[C@H](C)c3ncccn3)ncc2nc1N | 11% | 14 µL/min/mg | 7950 nM | 0.1 nM | 31% | 46 µL/min/mg | 404 nM | 29 |  |  |  |  |  | 
Nc1nc2ccc(C(=O)N3CCOC[C@@H]3c3ccc(C(F)(F)F)nc3)cc2c2c1COC2 | < 20% | 14 µL/min/mg | 8530 nM | 0.2 nM | < 20% | 17 µL/min/mg | 533 nM | 36 | 2.5 h | 6.67 mL/min/kg | 0.27 | 25 mL/min/kg | 1 L/kg | 46%
Nc1nc2cnc(C(=O)N3CCCC[C@@H]3c3ccc(C(F)(F)F)cc3)cc2c2c1COC2 | < 20% | 74 µL/min/mg | 2090 nM | < 0.1 nM | < 20% | 102 µL/min/mg | 112 nM | 4 |  |  |  |  |  | 
C[C@H](c1ncccn1)N(Cc1ccc(C(F)(F)F)cn1)C(=O)c1cc2c3c(c(N)nc2cc1F)COC3 | 50% | 262 µL/min/mg | 26 nM | < 0.1 nM | ≤ 10% | 624 µL/min/mg | 10 nM | 31 |  |  |  |  |  | 
C[C@H](c1ncccn1)N(Cc1ccc(C(F)(F)F)cn1)C(=O)c1ccc2nc(N)ccc2c1 | 17% | < 14 µL/min/mg | 743 nM | 0.6 nM | 21% | 62 µL/min/mg | 482 nM | 15 |  |  |  |  |  | 
